Assay results taken from patent US12186425B2, “Devices and methods for reducing cystine crystals in vivo” (University of Florida Research Foundation, Inc., priority 2017, dated 2025).
≈ marks a conversion by molar mass, not a printed value. Each block holds one compound with its values, some of them ahead of it.

Columns and labels:
[1] = rabbit, in vivo; cited from earlier work
Solubility of cystine = type: physicochemical; conditions: phosphate buffered saline, aqueous buffer; read-out: saturated solution of cystine
[2] = reported; cited from earlier work

SMILES: NCCS [cysteamine, β-mercaptoethylamine]
eye drop concentration above which toxicity occurred [1]: > 0.55%

solubility thermodynamic (Solubility of cystine): 110 µg/mL (≈ 458 µM)
SMILES: N[C@@H](CSSC[C@H](N)C(=O)O)C(=O)O [cystine]

SMILES: CC(C)(C)NC[C@H](O)COc1nsnc1N1CCOCC1 [timolol]
epithelium permeability [2]: 1.2×10^−7 m/s
